We go through nine compounds from US20190388425A1, “SUBSTITUTED IMIDAZOPYRIDINPYRIMIDINES” (Bayer Pharma Aktiengesellschaft, priority 2017, published 2019).

The structures appear in SMILES notation.

The target of this test is T1, human full-length MKNK1 (Homo sapiens, UniProt Q9BUB5, T385D).
T1 construct: GST (N); purchased Carna Biosciences 02-145; host or cells: insect cells (baculovirus expression system)
T1 sequence (Q9BUB5 1-424 isoform Q9BUB5-2 T344D): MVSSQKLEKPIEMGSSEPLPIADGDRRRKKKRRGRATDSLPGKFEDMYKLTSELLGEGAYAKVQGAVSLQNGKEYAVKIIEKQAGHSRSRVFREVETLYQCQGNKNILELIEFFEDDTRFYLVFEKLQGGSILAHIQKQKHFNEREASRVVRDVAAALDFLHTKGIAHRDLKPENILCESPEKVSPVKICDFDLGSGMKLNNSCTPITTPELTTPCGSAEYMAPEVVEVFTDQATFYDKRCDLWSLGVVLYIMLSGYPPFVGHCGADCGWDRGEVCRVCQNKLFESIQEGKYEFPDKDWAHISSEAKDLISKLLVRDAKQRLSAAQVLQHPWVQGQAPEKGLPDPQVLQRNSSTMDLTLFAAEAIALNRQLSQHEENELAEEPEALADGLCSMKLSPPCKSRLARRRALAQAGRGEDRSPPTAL
In words: MKNK1 kinase high ATP assay (TR-FRET). Particulars: TR-FRET, 2 mM ATP (high ATP), 15 min preincubation with enzyme, 30 min reaction at 22° C.; read-out: MKNK1 IC50. In kind it is biochemical. How it is done: MKNK1 Kinase High ATP Assay
MKNK1-inhibitory activity at high ATP of compounds of the present invention after their preincubation with MKNK1 was quantified employing the TR-FRET-based MKNK1 high ATP assay as described in the following paragraphs.
As substrate for the kinase reaction the biotinylated peptide biotin-Ahx-[…] (C-terminus in amide form) was used, which can be purchased e.g. from the company Biosyntan (Berlin-Buch, Germany).
For the assay 50 nL of a 100 fold concentrated solution of the test compound in DMSO was pipetted into a black low volume 384 well microtiter plate (Greiner Bio-One, Frickenhausen, Germany), 2 μL of a solution of MKNK1 in aqueous assay buffer [50 mM HEPES pH 7.5, 5 mM MgCl2, 1.0 mM dithiothreitol, 0.005% (v/v) Nonidet-P40 (Sigma)] was added and the mixture was incubated for 15 min at 22° C. to allow pre-binding of the test compounds to the enzyme before the start of the kinase reaction. Then the kinase reaction was started by the addition of 3 μL of a solution of adenosine-tri-phosphate (ATP, 3.3 mM=>final conc. in the 5 μL assay volume is 2 mM) and substrate (0.1 μM=>final conc. in the 5 μL assay volume is 0.06 μM) in assay buffer and the resulting mixture was incubated for a reaction time of 30 min at 22° C. The concentration of MKNK1 was adjusted depending of the activity of the enzyme lot and was chosen appropriate to have the assay in the linear range, typical concentrations were in the range of 0.003 μg/mL. The reaction was stopped by the addition of 5 μL of a solution of TR-FRET detection reagents (5 nM streptavidine-XL665 [Cisbio Bioassays, Codolet, France] and 1 nM anti-ribosomal protein S6 (pSer236)-antibody from Invitrogen [#44921G] and 1 nM LANCE EU-W1024 labeled ProteinG [Perkin-Elmer, product no. AD0071]) in an aqueous EDTA-solution (100 mM EDTA, 0.1% (w/v) bovine serum albumin in 50 mM HEPES pH 7.5).
The resulting mixture was incubated for 1 h at 22° C. to allow the formation of complex between the phosphorylated biotinylated peptide and the detection reagents. Subsequently the amount of phosphorylated substrate was evaluated by measurement of the resonance energy transfer from the Eu-chelate to the streptavidine-XL. Therefore, the fluorescence emissions at 620 nm and 665 nm after excitation at 350 nm were measured in a TR-FRET reader, e.g. a Rubystar (BMG Labtechnologies, Offenburg, Germany) or a Viewlux (Perkin-Elmer). The ratio of the emissions at 665 nm and at 622 nm was taken as the measure for the amount of phosphorylated substrate.
Usually IC50 stands for the concentration that inhibits the measured activity by half. With `O=C1NC2(CCC2)n2c1c(Cl)cc(Nc1ncnc3sc4c(c13)CC[C@H](C(=O)N1CCC1)C4)c2=O` [Example 96, 6′-{[(7S)-7-(Azetidine-1-carbonyl)-5,6,7,8-tetrahydro[1]benzothieno[2,3-d]pyrimidin-4-yl]amino}-8′-chloro-2′H-spiro[cyclobutane-1,3′-imidazo[1,5-a]pyridine]-1′,5′-dione], the IC50 was 0.1 nM. For `NC(=O)[C@H]1CCc2c(sc3ncnc(Nc4cc(Cl)c5n(c4=O)C4(CCCC4)NC5=O)c23)C1` [Example 85, (7S)-4-[(8′-Chloro-1′,5′-dioxo-1′,5′-dihydro-2′H-spiro[cyclopentane-1,3′-imidazo[1,5-a]pyridin]-6′-yl)amino]-5,6,7,8-tetrahydro[1]benzothieno[2,3-d]pyrimidine-7-carboxamide], the IC50 is 0.2 nM.

`Cc1cc(Nc2ncnc3sc4c(c23)CC[C@H](C(=O)N2CC(N(C)C)C2)C4)c(=O)n2c1C(=O)NC21CCCCC1` [Example 19, 6′-{[(7S)-7-{[3-(Dimethylamino)azetidin-1-yl]carbonyl}-5,6,7,8-tetrahydro[1]benzothieno[2,3-d]pyrimidin-4-yl]amino}-8′-methyl-2′H-spiro[cyclohexane-1,3′-imidazo[1,5-a]pyridine]-1′,5′-dione]: the IC50 worked out at 0.9 nM. In the case of `CC1(C)NC(=O)c2c(Cl)cc(Nc3ncnc4sc5c(c34)CC[C@H](C(=O)O)C5)c(=O)n21` [Example 109, (7S)-4-[(8-Chloro-3,3-dimethyl-1,5-dioxo-1,2,3,5-tetrahydroimidazo[1,5-a]pyridin-6-yl)amino]-5,6,7,8-tetrahydro[1]benzothieno[2,3-d]pyrimidine-7-carboxylic acid] it was 26.7 nM.

On to `O=C1NC2(CCCCC2)n2c1c(Cl)cc(Nc1ncnc3sc4c(c13)CC[C@H](C(=O)O)C4)c2=O` [Example 73, (7S)-4-[(8′-Chloro-1′,5′-dioxo-1′,5′-dihydro-2′H-spiro[cyclohexane-1,3′-imidazo[1,5-a]pyridin]-6′-yl)amino]-5,6,7,8-tetrahydro[1]benzothieno[2,3-d]pyrimidine-7-carboxylic acid], for which the IC50 came to 1.6 nM.

As to `O=C1NC2(CCCCC2)n2c1c(Cl)cc(Nc1ncnc3sc4c(c13)CC[C@H](C(=O)N1CCC1)C4)c2=O` [Example 76, 6′-{[(7S)-7-(Azetidin-1-ylcarbonyl)-5,6,7,8-tetrahydro[1]benzothieno[2,3-d]pyrimidin-4-yl]amino}-8′-chloro-2′H-spiro[cyclohexane-1,3′-imidazo[1,5-a]pyridine]-1′,5′-dione], the IC50 is 0.9 nM. Regarding `Cc1cc(Nc2ncnc3sc4c(c23)CC[C@H](C(=O)N2CCC2)C4)c(=O)n2c1C(=O)NC21CCCC1` [Example 38, 6′-{[(7S)-7-(Azetidin-1-ylcarbonyl)-5,6,7,8-tetrahydro[1]benzothieno[2,3-d]pyrimidin-4-yl]amino}-8′-methyl-2′H-spiro[cyclopentane-1,3′-imidazo[1,5-a]pyridine]-1′,5′-dione], the IC50 is 3.1 nM.

`Cc1cc(Nc2ncnc3sc4c(c23)CC[C@H](C(=O)N(C)C)C4)c(=O)n2c1C(=O)NC21CCC1` [Example 20, (7S)—N,N-Dimethyl-4-[(8′-methyl-1′,5′-dioxo-1′,5′-dihydro-2′H-spiro[cyclobutane-1,3′-imidazo[1,5-a]pyridin]-6′-yl)amino]-5,6,7,8-tetrahydro[1]benzothieno[2,3-d]pyrimidine-7-carboxamide]: the half-inhibitory concentration (IC50) came to 0.6 nM. For the compound `C[C@@H]1COCCN1C(=O)[C@H]1CCc2c(sc3ncnc(Nc4cc(Cl)c5n(c4=O)C4(CCCCC4)NC5=O)c23)C1` [Example 79, 8′-Chloro-6′-{[(7S)-7-{[(3R)-3-methylmorpholin-4-yl]carbonyl}-5,6,7,8-tetrahydro[1]benzothieno[2,3-d]pyrimidin-4-yl]amino}-2′H-spiro[cyclohexane-1,3′-imidazo[1,5-a]pyridine]-1′,5′-dione], the IC50 was found to be 0.3 nM.
